Source: patent publication US9168248B2, “Spiro compounds useful as inhibitors of stearoyl-coenzyme A delta-9 desaturase” (Merck Canada Inc., priority 2009, dated 2015)
pIC50: −log10 of the molar value.

Molecular target: human SCD1 (Homo sapiens (Human), UniProt O00767)
Assay: SCD enzyme activity assay (conversion of radiolabeled stearoyl-CoA to oleoyl-CoA), human SCD1
Format: biochemical
Conditions: human SCD1 from baculovirus/Sf9 expression system, reconstituted with cytochrome B5 and cytochrome B5 reductase; read-out: IC50 hSCD-1
Procedure: I. SCD Enzyme Activity Assay:
The potency of compounds of formula I against the stearoyl-CoA desaturase was determined by measuring the conversion of radiolabeled stearoyl-CoA to oleoyl-CoA using rat liver microsome or human SCD1 following previously published procedures with some modifications (Joshi, et al., J. Lipid Res., 18: 32-36 (1977); Talamo, et al., Anal. Biochem, 29: 300-304 (1969)). Liver microsome was prepared from male Wistar or Sprague Dawley rats on a high carbohydrate diet for 3 days (LabDiet #5803, Purina). The livers were homogenized (1:10 w/v) in a buffer containing 250 mM sucrose, 1 mM EDTA, 5 mM DTT and 50 mM Tris-HCl (pH 7.5). After a 100,000×g centrifugation for 60 min, the liver microsome pellet was suspended in a buffer containing 100 mM sodium phosphate, 20% glycerol, 2 mM DTT, and stored at −78° C. Human SCD1 desaturase system was reconstituted using human SCD1 from a baculovirus/Sf9 expression system, cytochrome B5 and cytochrome B5 reductase. Typically, test compound in 2 μL DMSO was incubated for […] at room temperature with 180 μL of the SCD enzyme in a buffer containing 100 mM Tris-HCl (pH 7.5), ATP (5 mM), Coenzyme-A (0.1 mM), Triton X-100 (0.5 mM) and NADH (2 mM). The reaction was initiated by the addition of 20 μL of [^3H]-stearoyl-CoA (final concentration=2 μM, radioactivity concentration=1 μCi/mL). After 10 mM, the reaction mixture (80 μL) was mixed with a calcium chloride/charcoal aqueous suspension (100 μL charcoal (10% w/v) plus 25 μL CaCl2 (2N). After centrifugation to precipitate the radioactive fatty acid species, tritiated water released from 9,10-[^3H]-stearoyl-CoA by the SCD enzyme was quantified on a scintillation counter.

human SCD1, sequence (O00767 whole entry): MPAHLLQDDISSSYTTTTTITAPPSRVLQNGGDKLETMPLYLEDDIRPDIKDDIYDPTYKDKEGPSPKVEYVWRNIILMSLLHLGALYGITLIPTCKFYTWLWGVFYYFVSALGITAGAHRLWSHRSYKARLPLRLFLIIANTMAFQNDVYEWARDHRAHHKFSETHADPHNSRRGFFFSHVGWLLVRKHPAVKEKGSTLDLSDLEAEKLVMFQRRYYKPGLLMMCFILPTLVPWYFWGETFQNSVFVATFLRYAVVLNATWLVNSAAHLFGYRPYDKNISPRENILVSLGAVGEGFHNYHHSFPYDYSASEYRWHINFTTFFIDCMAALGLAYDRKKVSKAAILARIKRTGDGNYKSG

Row | pIC50 | Molecule
1 | 7.96 | O=C(O)Cn1nnc(-c2cc(N3CCC4(CCc5c(Cl)cccc5O4)CC3)no2)n1 [Example 2, {5-[3-(5-Chloro-3,4-dihydro-1′H-spiro[chromene-2,4′-piperidin]-1′-yl)isoxazol-5-yl]-2H-tetrazol-2-yl}acetic acid]
2 | 6.61 | O=C(O)Cn1nnc(-c2cnc(N3CCC4(C=Cc5ccccc54)CC3)s2)n1 [Example 7, {5-[2-(1′H-Spiro[indene-1,4′-piperidin]-1′-yl)-1,3-thiazol-5-yl]-2H-tetrazol-2-yl}acetic acid]
3 | 9.00 | O=C(O)Cn1nnc(-c2nnc(N3CCC4(CCc5c(OC(F)(F)F)cccc5O4)CC3)s2)n1 [Example 17, (5-{5-[5-(Trifluoromethoxy)-3,4-dihydro-1′H-spiro[chromene-2,4′-piperidin]-1′-yl]-1,3,4-thiadiazol-2-yl}-2H-tetrazol-2-yl)acetic acid]
4 | 9.00 | O=C(O)Cn1nnc(-c2cnc(N3CCC4(CCc5c(cccc5C(F)(F)F)O4)CC3)s2)n1 [Example 76, (5-{2-[5-(Trifluoromethyl)-3,4-dihydro-1′H-spiro[chromene-2,4′-piperidin]-1′-yl]-1,3-thiazol-5-yl}-2H-tetrazol-2-yl)acetic acid]
5 | 7.21 | O=C(O)Cn1nnc(-c2cnc(N3CCC4(CC3)NC(=O)c3c(Cl)cccc3O4)s2)n1 [Example 54]
6 | 8.52 | O=C(O)Cn1ccn(-c2cnc(N3CCC4(CCc5c(Cl)cccc5O4)CC3)s2)c1=O [Example 68, {3-[2-(5-Chloro-3,4-dihydro-1′H-spiro[chromene-2,4′-piperidin]-1′-yl)-1,3-thiazol-5-yl]-2-oxo-2,3-dihydro-1H-imidazol-1-yl}acetic acid]
7 | 9.00 | Cc1cccc2c1CCC1(CCN(c3ncc(-c4nnn(CC(=O)O)n4)s3)CC1)O2 [Example 42, {5-[2-(5-Methyl-3,4-dihydro-1′H-spiro[chromene-2,4′-piperidin]-1′-yl)-1,3-thiazol-5-yl]-2H-tetrazol-2-yl}acetic acid]
8 | 9.00 | O=C(O)Cn1nnc(-c2cnc(N3CCC4(CCc5c(Br)cccc5O4)CC3)s2)n1 [Example 28, {5-[2-(5-Bromo-3,4-dihydro-1′H-spiro[chromene-2,4′-piperidin]-1′-yl)-1,3-thiazol-5-yl]-2H-tetrazol-2-yl}acetic acid]
9 | 7.31 | O=C(O)Cn1nnc(-c2cnc(N3CCC4(CCc5ccccc54)CC3)s2)n1 [Example 5, {5-[2-(2,3-Dihydro-1′H-spiro[indene-1,4′-piperidin]-1′-yl)-1,3-thiazol-5-yl]-2H-tetrazol-2-yl}acetic acid]
10 | 6.47 | O=C(O)Cn1nnc(-c2nnc(N3CCC4(CC3)Cc3ccccc3C(=O)O4)s2)n1 [Example 10, {5-[5-(1-Oxo-1,4-dihydro-1′H-spiro[isochromene-3,4′-piperidin]-1′-yl)-1,3,4-thiadiazol-2-yl]-2H-tetrazol-2-yl}acetic acid]
11 | 7.68 | O=C(O)Cn1nnc(-c2cnc(N3CCC4(CC3)Cc3cccc(Cl)c3C(=O)O4)s2)n1 [Example 46, {5-[2-(8-Chloro-1-oxo-1,4-dihydro-1′H-spiro[isochromene-3,4′-piperidin]-1′-yl)-1,3-thiazol-5-yl]-2H-tetrazol-2-yl}acetic acid]
12 | 7.92 | O=C(O)Cn1nnc(-c2nnc(N3CCC4(CCc5c(Cl)cccc5O4)CC3)s2)n1 [Example 1, {5-[5-(5-Chloro-3,4-dihydro-1′H-spiro[chromene-2,4′-piperidin]-1′-yl)-1,3,4-thiadiazol-2-yl]-2H-tetrazol-2-yl}acetic acid]
13 | 6.15 | O=C(O)Cn1nnc(-c2nnc(N3CCC4(CC3)CC(=O)c3ccccc3O4)s2)n1 [Example 8, {5-[5-(4-Oxo-3,4-dihydro-1′H-spiro[chromene-2,4′-piperidin]-1′-yl)-1,3,4-thiadiazol-2-yl]-2H-tetrazol-2-yl}acetic acid]
14 | 6.74 | O=C(O)Cn1nnc(-c2cnc(N3CCC4(CC3)NC(=O)c3ccccc3O4)s2)n1 [Example 9, {5-[2-(4-Oxo-3,4-dihydro-1′H-spiro[1,3-benzoxazine-2,4′-piperidin]-1′-yl)-1,3-thiazol-5-yl]-2H-tetrazol-2-yl}acetic acid]
15 | 8.52 | {4-[5-(5-Chloro-3,4-dihydro-1′H-spiro[chromene-2,4′-piperidin]-1′-yl)-1,3,4-thiadiazol-2-yl]-1H-1,2,3-triazol-1-yl}acetic acid [Example 72]
16 | 9.00 | O=C(O)Cn1nnc(-c2cc(N3CCC4(CCc5c(Br)cccc5O4)CC3)no2)n1 [Example 22, {5-[3-(5-Bromo-3,4-dihydro-1′H-spiro[chromene-2,4′-piperidin]-1′-yl)isoxazol-5-yl]-2H-tetrazol-2-yl}acetic acid]
17 | 9.00 | O=C(O)Cn1nnc(-c2nnc(N3CCC4(CCc5c(cccc5C(F)(F)F)O4)CC3)s2)n1 [Example 75, (5-{5-[5-(Trifluoromethyl)-3,4-dihydro-1′H-spiro[chromene-2,4′-piperidin]-1′-yl]-1,3,4-thiadiazol-2-yl}-2H-tetrazol-2-yl)acetic acid]
18 | 6.44 | O=C(O)Cn1nnc(-c2nnc(N3CCC4(CCc5c(O)cccc5O4)CC3)s2)n1 [Example 12, {5-[5-(5-Hydroxy-3,4-dihydro-1′H-spiro[chromene-2,4′-piperidin]-1′-yl)-1,3,4-thiadiazol-2-yl]-2H-tetrazol-2-yl}acetic acid]
19 | 7.89 | COc1cccc2c1CCC1(CCN(c3nnc(-c4nnn(CC(=O)O)n4)s3)CC1)O2 [Example 11, {5-[5-(5-Methoxy-3,4-dihydro-1′H-spiro[chromene-2,4′-piperidin]-1′-yl)-1,3,4-thiadiazol-2-yl]-2H-tetrazol-2-yl}acetic acid]
20 | 7.89 | O=C(O)Cn1nnc(-c2cnc(N3CCC4(CCc5c(Cl)cccc5O4)CC3)s2)n1 [Example 3, {5-[2-(5-Chloro-3,4-dihydro-1′H-spiro[chromene-2,4′-piperidin]-1′-yl)-1,3-thiazol-5-yl]-2H-tetrazol-2-yl}acetic acid]
21 | 9.00 | O=C(O)Cn1nnc(-c2cnc(N3CCC4(CCc5c(OC(F)(F)F)cccc5O4)CC3)s2)n1 [Example 18, (5-{2-[5-(Trifluoromethoxy)-3,4-dihydro-1′H-spiro[chromene-2,4′-piperidin]-1′-yl]-1,3-thiazol-5-yl}-2H-tetrazol-2-yl)acetic acid]
22 | 7.39 | O=C(O)Cn1nnc(-c2cnc(N3CCC4(CC3)CC(=O)c3ccccc3O4)s2)n1 [Example 4, {5-[2-(4-Oxo-3,4-dihydro-1′H-spiro[chromene-2,4′-piperidin]-1′-yl)-1,3-thiazol-5-yl]-2H-tetrazol-2-yl}acetic acid]
23 | 7.19 | O=C(O)Cn1nnc(-c2cnc(N3CCC4(CC3)COc3ccccc34)s2)n1 [Example 6, {5-[2-(1′H-Spiro[1-benzofuran-3,4′-piperidin]-1′-yl)-1,3-thiazol-5-yl]-2H-tetrazol-2-yl}acetic acid]
24 | 9.00 | O=C(O)Cn1nnc(-c2cc(N3CCC4(CCc5c(OC(F)(F)F)cccc5O4)CC3)no2)n1 [Example 16, (5-{3-[5-(Trifluoromethoxy)-3,4-dihydro-1H-spiro[chromene-2,4′-piperidin]-1′-yl]isoxazol-5-yl}-2H-tetrazol-2-yl)acetic acid]
